These compounds were tested against T1, Recombinant human EP300 containing the bromodomain (EP300-BD (1040-1161)) (Homo sapiens, UniProt Q09472) (assay: EP300 Alphascreen binding assay).
T1 construct: Recombinant human EP300 bromodomain (EP300-BD (1040-1161)); made in house; host or cells: E. coli BL21-CodonPlus (DE3), modified pET vector
T1 sequence (Q09472 1040-1161): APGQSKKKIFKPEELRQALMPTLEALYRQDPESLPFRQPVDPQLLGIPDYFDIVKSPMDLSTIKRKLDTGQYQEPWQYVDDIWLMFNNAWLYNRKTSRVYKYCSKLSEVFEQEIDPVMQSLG
Summary of the method: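 Displacement of a biotinylated acetyl-K56 histone H3 peptide from the N-His bromodomain construct (1040-1161) measured by AlphaScreen proximity, beads at 7.5 μg/ml final, read 60 min after addition. Protein, peptide and compound first incubated 1 h at room temperature, pH 7.5 HEPES buffer; IC50 by four-parameter logistic fit.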

Row | SMILES | IC50
1 | CCOc1cc(C(=O)O)c(F)cc1-c1cn([C@H]2CCOC2)c2ncc(-c3c(C)noc3C)cc12 [P-0360, (S)-4-(5-(3,5-dimethylisoxazol-4-yl)-1-(tetrahydrofuran-3-yl)-1H-pyrrolo[2,3-b]pyridin-3-yl)-5-ethoxy-2-fluorobenzoic acid] | 0.1 to 1000 nM
2 | Cc1noc(C)c1-c1cnc2c(c1)c(-c1c(Cl)cc(C(=O)O)cc1OC1CCC1)cn2[C@H]1CCOC1 [P-0361, (S)-3-chloro-5-cyclobutoxy-4-(5-(3,5-dimethylisoxazol-4-yl)-1-(tetrahydrofuran-3-yl)-1H-pyrrolo[2,3-b]pyridin-3-yl)benzoic acid] | 0.1 to 1000 nM
3 | COc1cc(C(=O)O)ncc1-c1cn(C2CCOCC2)c2ncc(-c3c(C)noc3C)cc12 [P-0362, 5-(5-(3,5-dimethylisoxazol-4-yl)-1-(tetrahydro-2H-pyran-4-yl)-1H-pyrrolo[2,3-b]pyridin-3-yl)-4-methoxypicolinic acid] | 0.1 to 1000 nM
4 | Cc1noc(C)c1-c1cnc2c(c1)c(-c1c(Cl)cc(C(=O)O)cc1OC1CC1)cn2C(C1CC1)C1CC1 [P-0363, 3-chloro-5-cyclopropoxy-4-(1-(dicyclopropylmethyl)-5-(3,5-dimethylisoxazol-4-yl)-1H-pyrrolo[2,3-b]pyridin-3-yl)benzoic acid] | 0.1 to 1000 nM
5 | Cc1noc(C)c1-c1cnc2c(c1)c(-c1ccc(C(=O)O)cc1OC(F)(F)F)cn2CC1(C#N)CCC1 [P-0364, 4-(1-((1-cyanocyclobutyl)methyl)-5-(3,5-dimethylisoxazol-4-yl)-1H-pyrrolo[2,3-b]pyridin-3-yl)-3-(trifluoromethoxy)benzoic acid] | 0.1 to 1000 nM
6 | Cc1nn(CC(C)(C)O)cc1-n1cc(-c2ccc(C(=O)O)cc2OC(F)(F)F)c2cc(-c3c(C)noc3C)cnc21 [P-0365, 4-(5-(3,5-dimethylisoxazol-4-yl)-1-(1-(2-hydroxy-2-methylpropyl)-3-methyl-1H-pyrazol-4-yl)-1H-pyrrolo[2,3-b]pyridin-3-yl)-3-(trifluoromethoxy)benzoic acid] | 0.1 to 1000 nM
7 | Cc1nn(CC(=O)N(C)C)cc1-n1cc(-c2ccc(C(=O)O)cc2OC(F)(F)F)c2cc(-c3c(C)noc3C)cnc21 [P-0366, 4-(1-(1-(2-(dimethylamino)-2-oxoethyl)-3-methyl-1H-pyrazol-4-yl)-5-(3,5-dimethylisoxazol-4-yl)-1H-pyrrolo[2,3-b]pyridin-3-yl)-3-(trifluoromethoxy)benzoic acid] | 0.1 to 1000 nM
8 | Cc1cc(C(=O)O)cc(OCC(F)F)c1-c1cn(C2CCOCC2)c2ncc(-c3c(C)noc3C)cc12 [P-0367, 3-(2,2-difluoroethoxy)-4-(5-(3,5-dimethylisoxazol-4-yl)-1-(tetrahydro-2H-pyran-4-yl)-1H-pyrrolo[2,3-b]pyridin-3-yl)-5-methylbenzoic acid] | 0.1 to 1000 nM
9 | COc1nc(C(=O)O)ccc1-c1cn(C2CCOCC2)c2ncc(-c3c(C)noc3C)cc12 [P-0368, 5-(5-(3,5-dimethylisoxazol-4-yl)-1-(tetrahydro-2H-pyran-4-yl)-1H-pyrrolo[2,3-b]pyridin-3-yl)-6-methoxypicolinic acid] | 0.1 to 1000 nM
10 | Cc1noc(C)c1-c1cnc2c(c1)c(-c1c(F)cc(C(=O)O)cc1OC(C)C)cn2C(C1CC1)C1CC1 [P-0369, 4-(1-(dicyclopropylmethyl)-5-(3,5-dimethylisoxazol-4-yl)-1H-pyrrolo[2,3-b]pyridin-3-yl)-3-fluoro-5-isopropoxybenzoic acid] | 0.1 to 1000 nM
11 | CCOc1cc(C(=O)O)cc(Cl)c1-c1cn(C(C2CC2)C2CC2)c2ncc(-c3c(C)noc3C)cc12 [P-0370, 3-chloro-4-(1-(dicyclopropylmethyl)-5-(3,5-dimethylisoxazol-4-yl)-1H-pyrrolo[2,3-b]pyridin-3-yl)-5-ethoxybenzoic acid] | 0.1 to 1000 nM
12 | CCOc1cc(C(=O)O)cc(Cl)c1-c1cn(C2CCOCC2)c2ncc(-c3c(C)noc3C)cc12 [P-0371, 3-chloro-4-(5-(3,5-dimethylisoxazol-4-yl)-1-(tetrahydro-2H-pyran-4-yl)-1H-pyrrolo[2,3-b]pyridin-3-yl)-5-ethoxybenzoic acid] | 0.1 to 1000 nM
13 | Cc1noc(C)c1-c1cnc2c(c1)c(-c1c(Cl)cc(C(=O)O)cc1OC(C)C)cn2C1CCOCC1 [P-0372, 3-chloro-4-(5-(3,5-dimethylisoxazol-4-yl)-1-(tetrahydro-2H-pyran-4-yl)-1H-pyrrolo[2,3-b]pyridin-3-yl)-5-isopropoxybenzoic acid] | 0.1 to 1000 nM
14 | CCOc1cc(C(=O)O)nc(OCC)c1-c1cn(C2CCOCC2)c2ncc(-c3c(C)noc3C)cc12 [P-0373, 5-(5-(3,5-dimethylisoxazol-4-yl)-1-(tetrahydro-2H-pyran-4-yl)-1H-pyrrolo[2,3-b]pyridin-3-yl)-4,6-diethoxypicolinic acid] | 0.1 to 1000 nM
15 | CCOc1cc(C(=O)O)c(F)c(OCC)c1-c1cn(C2CCOCC2)c2ncc(-c3c(C)noc3C)cc12 [P-0374, 4-(5-(3,5-dimethylisoxazol-4-yl)-1-(tetrahydro-2H-pyran-4-yl)-1H-pyrrolo[2,3-b]pyridin-3-yl)-3,5-diethoxy-2-fluorobenzoic acid] | 0.1 to 1000 nM
16 | CCOc1cc(C(=O)O)c(F)cc1-c1cn(C2CCOCC2)c2ncc(-c3c(C)noc3C)cc12 [P-0375, 4-(5-(3,5-dimethylisoxazol-4-yl)-1-(tetrahydro-2H-pyran-4-yl)-1H-pyrrolo[2,3-b]pyridin-3-yl)-5-ethoxy-2-fluorobenzoic acid] | 0.1 to 1000 nM
17 | CCOc1nc(C(=O)O)ccc1-c1cn(C2CCOCC2)c2ncc(-c3c(C)noc3C)cc12 [P-0376, 5-(5-(3,5-dimethylisoxazol-4-yl)-1-(tetrahydro-2H-pyran-4-yl)-1H-pyrrolo[2,3-b]pyridin-3-yl)-6-ethoxypicolinic acid] | 0.1 to 1000 nM
18 | CCOc1cc(C(=O)O)c(F)cc1-c1cn(-c2ccccc2F)c2ncc(-c3c(C)noc3C)cc12 [P-0377, 4-(5-(3,5-dimethylisoxazol-4-yl)-1-(2-fluorophenyl)-1H-pyrrolo[2,3-b]pyridin-3-yl)-5-ethoxy-2-fluorobenzoic acid] | 0.1 to 1000 nM
19 | Cc1noc(C)c1-c1cnc2c(c1)c(-c1ccc(C(=O)O)cc1OC(F)(F)F)cn2C1CCC1 [P-0378, 4-(1-cyclobutyl-5-(3,5-dimethylisoxazol-4-yl)-1H-pyrrolo[2,3-b]pyridin-3-yl)-3-(trifluoromethoxy)benzoic acid] | 0.1 to 1000 nM
20 | Cc1noc(C)c1-c1cnc2c(c1)c(-c1ccc(C(=O)O)cc1OC1CC1)cn2C1CCOCC1 [P-0379, 3-cyclopropoxy-4-(5-(3,5-dimethylisoxazol-4-yl)-1-(tetrahydro-2H-pyran-4-yl)-1H-pyrrolo[2,3-b]pyridin-3-yl)benzoic acid] | 0.1 to 1000 nM
21 | Cc1noc(C)c1-c1cnc2c(c1)c(-c1c(Cl)cc(C(=O)O)cc1OC(F)(F)F)cn2C(C1CCC1)C1CCC1 [P-0380, 3-chloro-4-(1-(dicyclobutylmethyl)-5-(3,5-dimethylisoxazol-4-yl)-1H-pyrrolo[2,3-b]pyridin-3-yl)-5-(trifluoromethoxy)benzoic acid] | 0.1 to 1000 nM
22 | Cc1noc(C)c1-c1cnc2c(c1)c(-c1c(Cl)cc(C(=O)O)cc1OC1CC1)cn2C1CCOCC1 [P-0381, 3-chloro-5-cyclopropoxy-4-(5-(3,5-dimethylisoxazol-4-yl)-1-(tetrahydro-2H-pyran-4-yl)-1H-pyrrolo[2,3-b]pyridin-3-yl)benzoic acid] | 0.1 to 1000 nM
23 | Cc1noc(C)c1-c1cnc2c(c1)c(-c1ccc(C(=O)O)cc1OC(F)(F)F)cn2C1CCCC1 [P-0382, 4-(1-cyclopentyl-5-(3,5-dimethylisoxazol-4-yl)-1H-pyrrolo[2,3-b]pyridin-3-yl)-3-(trifluoromethoxy)benzoic acid] | 0.1 to 1000 nM
24 | Cc1noc(C)c1-c1cnc2c(c1)c(-c1ccc(C(=O)O)cc1OC(F)(F)F)cn2C1(C)CCOC1 (stereo not shown) [P-0383, 4-(5-(3,5-dimethylisoxazol-4-yl)-1-(3-methyltetrahydrofuran-3-yl)-1H-pyrrolo[2,3-b]pyridin-3-yl)-3-(trifluoromethoxy)benzoic acid] | 0.1 to 1000 nM
25 | Cc1noc(C)c1-c1cnc2c(c1)c(-c1ccc(C(=O)O)cc1OC(F)(F)F)cn2-c1cnc(C2CC2)nc1 [P-0384, 4-(1-(2-cyclopropylpyrimidin-5-yl)-5-(3,5-dimethylisoxazol-4-yl)-1H-pyrrolo[2,3-b]pyridin-3-yl)-3-(trifluoromethoxy)benzoic acid] | 0.1 to 1000 nM
26 | Cc1noc(C)c1-c1cnc2c(c1)c(-c1ccc(C(=O)O)cc1OC(F)(F)F)cn2C1(C)CCOCC1 [P-0385, 4-(5-(3,5-dimethylisoxazol-4-yl)-1-(4-methyltetrahydro-2H-pyran-4-yl)-1H-pyrrolo[2,3-b]pyridin-3-yl)-3-(trifluoromethoxy)benzoic acid] | 0.1 to 1000 nM
27 | Cc1noc(C)c1-c1cnc2c(c1)c(-c1c(Cl)cc(C(=O)O)cc1OC(F)(F)F)cn2-c1cnc(C2CC2)nc1 [P-0386, 3-chloro-4-(1-(2-cyclopropylpyrimidin-5-yl)-5-(3,5-dimethylisoxazol-4-yl)-1H-pyrrolo[2,3-b]pyridin-3-yl)-5-(trifluoromethoxy)benzoic acid] | 0.1 to 1000 nM
28 | Cc1noc(C)c1-c1cnc2c(c1)c(-c1ccc(C(=O)O)cc1OCC(F)F)cn2-c1cnc(C2CC2)nc1 [P-0387, 4-(1-(2-cyclopropylpyrimidin-5-yl)-5-(3,5-dimethylisoxazol-4-yl)-1H-pyrrolo[2,3-b]pyridin-3-yl)-3-(2,2-difluoroethoxy)benzoic acid] | 0.1 to 1000 nM

Source: US11446287B2, “Compounds and methods for EP300 or CBP modulation and indications therefor” (Opna Immuno-Oncology SA, priority 2019, dated 2022)
